Data reported in patent US20230338348A1, “RENIN-ANGIOTENSIN SYSTEM (RAS) MODULATORS FOR TREATMENT OF VIRAL INFECTIONS, PHARMACEUTICAL COMPOSITIONS INCLUDING THE SAME, AND METHODS OF TREATING USING THE SAME” (Trocar Pharma Inc., priority 2020, published 2023).

Tests used:
[1] = molecular target: T1, Human AT1 (Homo sapiens, UniProt P30556); assay: Angiotensin II AT1 receptor inhibition; format: binding; details: Human AT1, at 1.0 × 10^−8M drug, N = 2
T1 sequence (P30556 1-359): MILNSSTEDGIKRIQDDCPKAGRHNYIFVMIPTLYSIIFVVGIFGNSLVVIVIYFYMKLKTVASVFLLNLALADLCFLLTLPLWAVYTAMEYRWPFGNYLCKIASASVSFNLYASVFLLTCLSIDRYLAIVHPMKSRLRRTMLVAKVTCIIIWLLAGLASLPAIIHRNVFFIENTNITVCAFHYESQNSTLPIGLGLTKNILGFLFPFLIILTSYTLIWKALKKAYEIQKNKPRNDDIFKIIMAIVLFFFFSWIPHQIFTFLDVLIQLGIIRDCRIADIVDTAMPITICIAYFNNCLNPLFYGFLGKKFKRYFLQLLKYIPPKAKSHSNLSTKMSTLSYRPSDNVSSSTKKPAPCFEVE

[2] = molecular target: T2, AT2, angiotensin II (Homo sapiens, UniProt P50052); assay: Angiotensin II AT2 receptor inhibition; format: binding; details: at 1.0 × 10^−9M drug, N = 2
T2 sequence (P50052 1-363): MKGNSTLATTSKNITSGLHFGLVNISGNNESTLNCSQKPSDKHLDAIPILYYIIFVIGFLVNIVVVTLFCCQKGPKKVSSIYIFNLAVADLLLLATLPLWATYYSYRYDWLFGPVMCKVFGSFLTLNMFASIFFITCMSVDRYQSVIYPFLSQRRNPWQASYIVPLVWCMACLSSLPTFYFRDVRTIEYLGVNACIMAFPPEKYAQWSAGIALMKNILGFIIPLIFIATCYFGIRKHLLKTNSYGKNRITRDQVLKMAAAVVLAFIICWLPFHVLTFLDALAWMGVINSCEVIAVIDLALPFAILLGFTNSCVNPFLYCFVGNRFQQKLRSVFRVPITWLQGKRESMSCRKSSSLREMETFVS

[3] = test system: Preglomerular vascular smooth muscle cells; assay: O2- generation in Ang II-stimulated preglomerular vascular smooth muscle cells; format: cell-based; details: cells stimulated by 10^−6 M Ang II
Description: Preglomerular vascular smooth muscle cells were stimulated by 10^−6 M Ang II to produce O2^−.

[4] = in vivo; cited from earlier work

With `CCCc1nc2c(C)cc(-c3nc4ccccc4n3C)cc2n1Cc1ccc(-c2ccccc2C(=O)O)cc1` [Telmisartan] the inhibition at 0.01 µM [1] was 52.7%, the inhibition at 0.001 µM [2] was 6.37% and the “inhibition of O2− generation (antioxidant action)” value [3] was “do not have antioxidant actions”. For the same compound, the half-life [4] was 24 h.
